Literature values as cited in patent publication US20010012851A1, “NITRIC OXIDE RELEASING OXINDOLE PRODRUGS FOR ANAGESIC, ANTI-INFLAMMATORY AND DISEASE-MODIFYING USE” (priority 1999, published 2001).

How the values were obtained:
[1] = animal models of acute and chronic inflammation; versus parent NSAID
[2] = acute and chronic administration; versus parent NSAID
[3] = rat; for healing of experimental gastric ulcers (healing rate): daily treatment, Elliott et al. 1995
[4] = rat

| Compound | anti-inflammatory activity [1] | gastric injury [2] | healing of experimental gastric ulcers (healing rate) [3] | mitochondrial damage ([4]; in vivo) | macroscopic damage in the small intestine ([4]; versus flurbiprofen) | healing of experimental gastric ulcers ([3]; earlier knowledge on the NO donor) |
| --- | --- | --- | --- | --- | --- | --- |
| O=C(Cc1ccccc1Nc1c(Cl)cccc1Cl)OCCCCO[N+](=O)[O-] [diclofenac nitroxybutylester, diclofenac-4-nitroxybutylester] | comparable to that of their parent NSAIDs | markedly less gastric injury | accelerated | – | – | – |
| O=C(O)Cc1ccccc1Nc1c(Cl)cccc1Cl [diclofenac] | – | – | no effect | – | – | – |
| CC(C(=O)OCCCCO[N+](=O)[O-])c1ccc(-c2ccccc2)c(F)c1 (stereo not shown) [flurbiprofen nitroxybutylester] | comparable to that of their parent NSAIDs | markedly less gastric injury | – | associated with mitochondrial damage in vivo | significantly less macroscopic damage | – |
| O=[N+]([O-])OCC(CO[N+](=O)[O-])O[N+](=O)[O-] [glyceryl trinitrate] | – | – | accelerated | – | – | significantly accelerated |
| CC(C(=O)OCCCCO[N+](=O)[O-])c1cccc(C(=O)c2ccccc2)c1 (stereo not shown) [ketoprofen nitroxybutylester] | comparable to that of their parent NSAIDs | markedly less gastric injury | – | – | – | – |
| COc1ccc2cc(CCC(C)=O)ccc2c1 [nabumetone] | – | – | no effect | – | – | – |
